Source: US20240197643A1, “ORAL DELIVERY OF NANOPARTICLES FOR KIDNEY DISEASE” (UNIVERSITY OF SOUTHERN CALIFORNIA, priority 2020, published 2024)
≈ marks a conversion by molar mass, not a printed value. Where two headings read alike, the source gives them in different places. Blank lines part the entries; values can stand above or below the compound they belong to.

How the values were obtained:
megalin (mouse) = megalin (mouse) (UniProt A2ARV4); experiment: confocal immunohistochemistry of mouse kidney sections 24 h after i.v. injection; colocalization of Cy7 micelle signal with anti-megalin Alexa Fluor 488 signal (ImageJ coloc2)
[1] = Encapsulation study of everolimus or rapamycin in micelles; format: physicochemical
Protocol: Micelles were assembled by dissolving DSPE-PEG(2000)-methoxy in methanol at 100 μM with either everolimus or rapamycin at different lipid:drug molar ratios (2:1, 5:1, 10:1, 20:1), mixing the components, and evaporating the organic solvent under nitrogen. The resulting film was dried under vacuum over night, and then hydrated at 80° C. for 30 min in water and allowed to cool to room temperature overnight before DLS and TEM analysis. DLS measurements were determined at 90° and 637 nm using a Malvern Zetasizer. Free drug was separated by syringe filtering micelles using PTFE syringe filter, pore size 0.1 μm. To calculate encapsulation efficiency and drug loading, micelles were disrupted using DMSO and encapsulated drug was quantified by reading absorbance at 278 nm in a UV Greiner 96-well plate.

Solubility in MQ = format: physicochemical; conditions: MQ (water)
Caco-2 cells = experiment: Cellular uptake and transport of CS-NP with pathway inhibitors; format: in vitro ADME, Human; conditions: same conditions as CS-NP R
Protocol: To assess the cellular uptake pathways of chitosan nanoparticles, Caco-2 cells were pretreated with medium containing colchicine (transcytosis inhibitor, 10 μM, for 60 min) or wortmannin (macropinocytosis inhibitor, 0.06 mM, for 3 h) before 100 μL of 100 μM rhodamine-loaded chitosan nanoparticles (CS-NP R) was administered in the apical chamber. The amount of rhodamine fluorescence was measured in the basolateral chamber over the course of 4 h.

[2] = Ex vivo imaging of orally administered CS-NP; format: in vivo, C57BL/6 J mice; conditions: oral gavage 10 mg/kg rhodamine
Protocol: To assess the biodistribution of CS-NP semi-quantitatively, 6-7 week old male and female C57BL/6 J mice (Jackson Laboratories, Bar Harbor, ME, USA) were orally gavaged with 10 mg/kg of rhodamine loaded in 200 μL of 500 μM CS-NP R, 10 mg/kg of free R, or PBS control. Mice were euthanized after 3, 24, or 48 h […] and organs (e.g., brain, heart, lungs, liver, kidneys, spleen, intestines, and bladder) were excised and imaged ex vivo on an AMI HTX in vivo imaging system (Spectral Instruments Imaging, Tucson, AZ, USA). The fluorescence signal was quantified via Aura software (Spectral Instruments Imaging, Tucson, AZ, USA, N ≥4), and the background was subtracted from the PBS treated group. The mean radiance (photons/s/cm2/sr) for each organ was quantified as a region of interest, and % of total organ fluorescence was obtained by dividing each organ by the sum of all the organ regions. Urine and blood samples were collected following organ harvest and stored at −20° C. until further analysis. All animal procedures followed NIH guidelines for the care and use of laboratory animals and were approved by the University of Southern California's Institutional Animal Care and Use Committee.

[3] = Histology and intestinal localization after oral gavage; format: in vivo, C57BL/6 J mice; conditions: 24 h after oral gavage
Description: Following ex vivo imaging, the brain, heart, lungs, liver, kidneys, spleen, intestines, and bladder were immediately frozen and embedded in OCT (Tissue Tek, Sakura Finetek, Torrance, CA, USA). 10 μm sections were obtained (CM3050 S Cryostat, Leica, Nussloch, Germany) and placed on Superfrost Plus slides (Fisherbrand, Waltham, MA, USA). Tissue sections were stained with hematoxylin & eosin (H&E) and imaged (Leica DMi8, Leica, Wetzlar, Germany, N=3). For staining of intestinal mucin, tissue sample were processed with an alcian blue 1%, pH 2.5 stain kit (Newcomer Supply, Middleton, WI, USA). Briefly, tissue sections on slides were washed in acetic acid for 3 min, incubated in alcian blue for 30 min at 4° C. in a humidified chamber, and counterstained with Nuclear Fast Red (Vector Laboratories, Burlingame, CA, USA). Samples were mounted using VectaMount™ (Vector Laboratories, Burlingame, CA, USA).

Caco-2 cell monolayers = experiment: Transepithelial resistance (TER) surveillance; format: cell-based, Human; conditions: up to 3 days after administration
Protocol: For transport and monolayer resistance experiments, Caco-2 cell monolayers were seeded onto Transwell inserts (Corning, NY, USA; diameter 6.5 mm, growth area 0.33 cm^2, pore size 0.4 μm), at an initial density of 3×10^5 cell/cm2 and maintained for 21 days in complete medium to form a confluent monolayer. The change of TER, representing the tightness of the cell monolayers, was measured by an EVOM2 Epithelial Voltohmmeter (World Precision Instruments, USA). Monolayers reaching steady-state values in the range of 300-400 Ω-cm^2 were used for studies.
Additionally, the effect of paracellular transport through tight junctions was monitored via TER of Caco-2 cells seeded on Transwell inserts. TER measurements were performed daily for three days prior to treatment with CS-NP R, free Rhodamine (free R), or PBS control to establish baseline measurements. TER was monitored every 6 h, then again on day 2 and 3 post-administration.

[4] = Serum fluorescence and absolute bioavailability after oral gavage; format: in vivo, C57BL/6 J mice; conditions: oral gavage 10 mg/kg rhodamine, relative to IV
Protocol: Blood draws were performed either retro-orbitally or via tail vein at 30 min, 3, 6, 12, 24, 36, and 48 h post-administration. Fluorescence was measured in serum and quantified using a rhodamine calibration curve developed in mouse serum.

[5] = human, in vivo, cited from earlier work
[6] = Kidney health in PKD mice (i-Stat Chem-8+); format: in vivo, Pkd1fl/fl; Pax8 rtTA; Tet-O-Cre mice; conditions: day of harvest
Protocol: Serum components, electrolytes, and kidney health markers including sodium (Na), potassium (K), chloride (Cl), ionized calcium (iCa), total carbon dioxide (tCO2), glucose (Glu), blood urea nitrogen (BUN)/Urea, creatinine (Crea), hematocrit (Hct), hemoglobin (Hb), and anion gap (AnGap) were assessed in diseased Pkd1fl/fl; Pax8 rtTA; Tet-OCre mice. 90 μL of blood taken from the submandibular vein on the day of harvest was analyzed using Chem-8+ cartridges for the i-Stat Handheld Blood Analyzer (Abbott, Chicago, IL, USA).

[7] = system: epithelial sodium channel (ENaC); experiment: ENaC current measurement in mpkCCDc14 monolayers; format: cell-based, Mouse; conditions: after 48 h, mpkCCDc14 cells, 300 μM met
Protocol: To validate the therapeutic efficacy of met on the reduction of ENAC current, TER and potential difference (PD) measurements were made on mpkCCDc14 cells seeded on Transwell filters as described above. ENaC-dependent equivalent short-circuit currents (leq) was estimated by Ohm's law, dividing the measured PD by the TER value and the area of one Transwell membrane (0.33 cm2). mpkCCDc14 cell cultures were treated with 100 μL CS-NP met (300 μM met), CS-NP, or PBS at pH 7.4.

AMPK = experiment: Transwell intestinal cell model, pAMPK/AMPK ELISA of basolateral mpkCCDc14; format: cell-based; conditions: 300 μM, up to 48 h, across Caco2 monolayer on transwell insert
Description: FIG. 17A provides a transwell schematic of mpkCCDc14 cell monolayers, with a Caco2 cell monolayer seeded on the transwell insert. […] Chitosan Disrupts Intestinal Tight Junctions.

[8] = human, in vivo; cited from earlier work
[9] = cited from earlier work
[10] = system: cortical collecting duct (CCD); conditions: identified in the literature; cited from earlier work
[11] = DSPE-PEG(2000)-methoxy:drug molar ratio 2:1

Chain of megalin (mouse) (A2ARV4 26-4660): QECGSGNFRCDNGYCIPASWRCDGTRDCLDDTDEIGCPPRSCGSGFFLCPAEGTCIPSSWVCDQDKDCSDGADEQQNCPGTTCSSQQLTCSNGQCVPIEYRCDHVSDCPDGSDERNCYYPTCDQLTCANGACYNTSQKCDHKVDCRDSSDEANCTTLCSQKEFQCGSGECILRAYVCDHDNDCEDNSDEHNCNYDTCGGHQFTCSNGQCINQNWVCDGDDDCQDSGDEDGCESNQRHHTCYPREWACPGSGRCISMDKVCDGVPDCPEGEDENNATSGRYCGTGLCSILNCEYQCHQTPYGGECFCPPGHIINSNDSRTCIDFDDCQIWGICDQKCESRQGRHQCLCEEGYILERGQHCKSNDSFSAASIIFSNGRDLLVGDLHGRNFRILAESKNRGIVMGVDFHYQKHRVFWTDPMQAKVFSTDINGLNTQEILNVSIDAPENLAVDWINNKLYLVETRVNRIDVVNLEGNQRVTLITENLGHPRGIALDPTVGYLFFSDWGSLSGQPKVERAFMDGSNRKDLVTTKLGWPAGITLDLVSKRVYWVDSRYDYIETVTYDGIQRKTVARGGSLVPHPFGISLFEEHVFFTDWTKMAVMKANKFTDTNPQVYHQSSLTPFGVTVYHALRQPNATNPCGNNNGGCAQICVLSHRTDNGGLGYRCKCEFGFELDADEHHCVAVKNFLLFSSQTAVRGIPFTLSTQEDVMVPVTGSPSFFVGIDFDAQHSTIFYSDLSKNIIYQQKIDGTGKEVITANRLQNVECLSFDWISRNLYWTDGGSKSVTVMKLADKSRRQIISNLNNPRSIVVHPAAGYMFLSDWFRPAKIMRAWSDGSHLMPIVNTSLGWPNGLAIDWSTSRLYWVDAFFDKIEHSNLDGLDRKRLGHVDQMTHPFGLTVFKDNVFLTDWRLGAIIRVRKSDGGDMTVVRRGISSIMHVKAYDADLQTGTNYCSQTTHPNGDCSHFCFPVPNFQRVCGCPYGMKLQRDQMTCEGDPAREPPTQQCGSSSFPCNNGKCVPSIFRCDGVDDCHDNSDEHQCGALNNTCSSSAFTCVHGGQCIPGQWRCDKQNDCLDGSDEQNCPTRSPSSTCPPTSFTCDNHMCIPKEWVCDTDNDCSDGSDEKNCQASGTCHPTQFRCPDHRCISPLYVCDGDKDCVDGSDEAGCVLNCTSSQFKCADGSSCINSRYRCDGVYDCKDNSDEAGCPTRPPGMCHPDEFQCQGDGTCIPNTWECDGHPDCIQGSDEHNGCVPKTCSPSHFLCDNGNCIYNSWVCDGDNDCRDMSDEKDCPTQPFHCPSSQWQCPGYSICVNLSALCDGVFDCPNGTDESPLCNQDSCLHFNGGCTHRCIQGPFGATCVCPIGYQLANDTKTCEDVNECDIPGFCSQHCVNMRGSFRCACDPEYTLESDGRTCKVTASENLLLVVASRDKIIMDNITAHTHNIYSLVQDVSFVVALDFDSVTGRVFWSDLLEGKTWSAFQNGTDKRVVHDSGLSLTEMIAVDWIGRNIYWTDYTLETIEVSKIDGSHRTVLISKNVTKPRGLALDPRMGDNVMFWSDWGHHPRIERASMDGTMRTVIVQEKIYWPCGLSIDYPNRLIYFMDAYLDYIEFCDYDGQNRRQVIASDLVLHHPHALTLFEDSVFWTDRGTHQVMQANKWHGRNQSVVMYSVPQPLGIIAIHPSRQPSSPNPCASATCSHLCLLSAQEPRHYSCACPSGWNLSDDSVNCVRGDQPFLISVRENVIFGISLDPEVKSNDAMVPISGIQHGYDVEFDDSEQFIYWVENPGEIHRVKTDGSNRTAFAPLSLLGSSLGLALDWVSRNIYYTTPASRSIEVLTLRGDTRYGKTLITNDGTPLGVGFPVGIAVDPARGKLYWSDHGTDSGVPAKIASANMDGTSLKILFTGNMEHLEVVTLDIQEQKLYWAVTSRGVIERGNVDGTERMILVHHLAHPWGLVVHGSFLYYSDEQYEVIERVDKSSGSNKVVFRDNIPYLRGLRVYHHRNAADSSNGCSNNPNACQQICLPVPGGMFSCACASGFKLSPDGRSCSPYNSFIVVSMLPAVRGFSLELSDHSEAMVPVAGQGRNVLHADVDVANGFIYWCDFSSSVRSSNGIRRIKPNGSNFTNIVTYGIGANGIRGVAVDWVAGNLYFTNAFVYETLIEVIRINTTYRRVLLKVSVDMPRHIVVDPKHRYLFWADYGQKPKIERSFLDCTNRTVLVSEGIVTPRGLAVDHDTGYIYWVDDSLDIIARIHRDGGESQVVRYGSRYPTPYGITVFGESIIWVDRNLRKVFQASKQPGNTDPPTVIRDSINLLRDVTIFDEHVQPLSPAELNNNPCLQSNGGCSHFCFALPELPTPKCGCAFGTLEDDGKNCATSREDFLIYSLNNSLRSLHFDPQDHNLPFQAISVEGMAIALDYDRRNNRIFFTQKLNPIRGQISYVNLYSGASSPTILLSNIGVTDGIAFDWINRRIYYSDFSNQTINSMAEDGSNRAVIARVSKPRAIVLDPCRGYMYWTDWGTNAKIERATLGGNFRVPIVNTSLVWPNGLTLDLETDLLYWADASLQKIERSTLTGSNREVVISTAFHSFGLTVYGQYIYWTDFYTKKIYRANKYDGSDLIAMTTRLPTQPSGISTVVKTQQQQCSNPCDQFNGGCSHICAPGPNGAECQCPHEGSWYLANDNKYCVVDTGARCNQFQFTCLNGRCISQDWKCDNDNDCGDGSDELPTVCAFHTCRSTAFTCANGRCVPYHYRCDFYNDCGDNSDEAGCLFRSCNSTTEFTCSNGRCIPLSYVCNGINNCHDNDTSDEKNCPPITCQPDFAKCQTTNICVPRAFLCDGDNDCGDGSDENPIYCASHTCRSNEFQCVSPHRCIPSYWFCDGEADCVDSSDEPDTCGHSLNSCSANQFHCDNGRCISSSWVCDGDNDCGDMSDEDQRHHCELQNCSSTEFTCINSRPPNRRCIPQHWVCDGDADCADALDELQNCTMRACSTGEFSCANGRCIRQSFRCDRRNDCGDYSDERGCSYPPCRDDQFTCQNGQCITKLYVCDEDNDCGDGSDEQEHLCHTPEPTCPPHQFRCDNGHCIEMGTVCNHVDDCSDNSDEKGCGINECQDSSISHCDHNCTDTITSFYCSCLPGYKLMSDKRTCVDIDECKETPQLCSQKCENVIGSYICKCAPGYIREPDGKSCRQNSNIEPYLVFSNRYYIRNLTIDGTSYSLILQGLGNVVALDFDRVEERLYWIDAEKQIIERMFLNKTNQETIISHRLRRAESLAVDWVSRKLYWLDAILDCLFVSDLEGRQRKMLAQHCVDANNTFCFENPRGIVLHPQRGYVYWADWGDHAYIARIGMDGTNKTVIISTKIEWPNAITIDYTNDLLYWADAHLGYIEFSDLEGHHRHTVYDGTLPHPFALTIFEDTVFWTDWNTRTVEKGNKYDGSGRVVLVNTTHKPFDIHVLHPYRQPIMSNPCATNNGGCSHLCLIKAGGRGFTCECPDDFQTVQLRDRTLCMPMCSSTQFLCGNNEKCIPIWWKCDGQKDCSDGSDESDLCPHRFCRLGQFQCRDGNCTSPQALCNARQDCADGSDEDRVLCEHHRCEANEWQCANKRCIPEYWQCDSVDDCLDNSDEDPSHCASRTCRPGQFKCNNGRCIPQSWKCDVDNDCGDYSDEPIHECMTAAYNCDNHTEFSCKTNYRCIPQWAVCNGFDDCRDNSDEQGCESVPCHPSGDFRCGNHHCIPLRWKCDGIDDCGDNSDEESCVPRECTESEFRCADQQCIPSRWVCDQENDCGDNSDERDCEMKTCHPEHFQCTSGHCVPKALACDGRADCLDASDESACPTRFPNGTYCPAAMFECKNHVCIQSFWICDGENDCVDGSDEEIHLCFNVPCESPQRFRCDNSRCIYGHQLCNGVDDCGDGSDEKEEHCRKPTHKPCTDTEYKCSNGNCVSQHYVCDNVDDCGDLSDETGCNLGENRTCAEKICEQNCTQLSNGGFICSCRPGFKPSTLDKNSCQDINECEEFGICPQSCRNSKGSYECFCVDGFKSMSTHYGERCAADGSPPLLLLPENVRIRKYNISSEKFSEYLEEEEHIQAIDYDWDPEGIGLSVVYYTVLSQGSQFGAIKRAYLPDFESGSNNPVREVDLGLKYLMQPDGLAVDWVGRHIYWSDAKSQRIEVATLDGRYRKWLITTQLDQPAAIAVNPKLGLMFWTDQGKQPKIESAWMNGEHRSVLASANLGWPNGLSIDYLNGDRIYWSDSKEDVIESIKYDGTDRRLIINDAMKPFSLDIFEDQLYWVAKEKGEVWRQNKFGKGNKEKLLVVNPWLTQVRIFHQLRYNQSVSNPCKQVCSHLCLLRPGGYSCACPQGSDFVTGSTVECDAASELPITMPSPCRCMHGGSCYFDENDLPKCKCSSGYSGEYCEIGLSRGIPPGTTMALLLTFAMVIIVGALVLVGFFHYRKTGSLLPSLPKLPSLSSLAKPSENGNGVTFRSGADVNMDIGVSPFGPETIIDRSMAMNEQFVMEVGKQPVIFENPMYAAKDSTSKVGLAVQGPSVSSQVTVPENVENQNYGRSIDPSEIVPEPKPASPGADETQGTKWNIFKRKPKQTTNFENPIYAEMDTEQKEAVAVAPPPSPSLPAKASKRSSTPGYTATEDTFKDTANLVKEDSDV

Pearson's R value (colocalization) (megalin (mouse)): 0.53
Compound: 45% PEG2000-(EEKKK)3E micelle (peptide (EEKKK)3E with added N-terminal cysteine, conjugated to DSPE-PEG(2000)-maleimide)

Pearson's R value (colocalization) (megalin (mouse)): 0.48
Compound: 45% PEG2000-(KKEEE)3K micelle (kidney-targeting peptide (KKEEE)3K with added N-terminal cysteine, conjugated to DSPE-PEG(2000)-maleimide)

Encapsulation efficiency (%) [1, 11]: 87.1 ± 2.0%
Loading capacity (wt/wt %) [1, 11]: 13.0 ± 0.3 wt/wt %
Moles drug per mole micelle [1, 11]: 0.1 ± 0.01
Size (nm) ([1]; drug-loaded micelles, lipid:drug 2:1): 21.0 ± 1.3 nm
solubility (Solubility in MQ): < 100 µg/mL
Compound: CO[C@H]1C[C@@H]2CC[C@@H](C)[C@@](O)(O2)C(=O)C(=O)N2CCCC[C@H]2C(=O)O[C@H]([C@H](C)C[C@@H]2CC[C@@H](OCCO)[C@H](OC)C2)CC(=O)[C@H](C)/C=C(\C)[C@@H](O)[C@@H](OC)C(=O)[C@H](C)C[C@H](C)/C=C/C=C/C=C/1C [Everolimus]

solubility (Solubility in MQ): 5 to 20 µg/mL (≈ 5.47 to 21.9 µM)
Compound: CO[C@H]1C[C@@H]2CC[C@@H](C)[C@@](O)(O2)C(=O)C(=O)N2CCCC[C@H]2C(=O)O[C@H]([C@H](C)C[C@@H]2CC[C@@H](O)[C@H](OC)C2)CC(=O)[C@H](C)/C=C(\C)[C@@H](O)[C@@H](OC)C(=O)[C@H](C)C[C@H](C)/C=C/C=C/C=C/1C [Rapamycin]

reduction in transport between the colchicine and wortmannin conditions (Caco-2 cells): No statistically significant reduction
% of total organ fluorescence accumulation in the intestines ([2]; 3 h): 45.8±14.0%
% of total organ fluorescence accumulation in the intestines ([2]; 24 h): 37.4±15.5%
% of total organ fluorescence accumulation in the intestines ([2]; 48 h): 38.5±15.1%
intestinal localization [3]: localized to the duodenum and ileum
absolute bioavailability [4]: 47.9%
Compound: CCN(CC)c1ccc2c(-c3ccccc3C(=O)O)c3ccc(=[N+](CC)CC)cc-3oc2c1.[Cl-] [free R, Rhodamine B]
changes in TER (Caco-2 cell monolayers): No changes in TER

serum components, electrolytes, and kidney health markers [6]: no significant difference between groups
Compound: CN(C)C(=N)N=C(N)N [free met, metformin]
patients with gastrointestinal (GI) discomfort [5]: 25%
patients with complete intolerance for the drug ([5]; listed as met): approximately 5%
patients with complete intolerance for the drug ([5]; listed as metformin): 5%
ENaC current [7]: 79.2 μA/cm2
phosphorylated AMPK to total AMPK compared to CS-NP (AMPK): significant increase

Compound: Cc1ccccc1C(=O)Nc1ccc(C(=O)N2CCCC(O)c3cc(Cl)ccc32)c(C)c1 (stereo not drawn) [tolvaptan]
clinical trial dropout rate [8]: 23%

Compound: CKDSPKSSKSIRFIPVST (listed as Homo sapiens)
Water solubility [9]: Good
Targeting location [10]: Type A

Compound: ELRGDRAKL-C: alternative CCD-targeting peptide, SEQ ID NO: 56 (ELRGDRAKLC; listed as Homo sapiens)
Water solubility [9]: Good
Targeting location [10]: CCD

Compound: KMGGTNHPE-C: cortical collecting duct (CCD)-targeting peptide, SEQ ID NO: 53 (KMGGTNHPEC; listed as Homo sapiens)
Water solubility [9]: Good
Targeting location [10]: PCT and CCD

Compound: MGSHIEPGG-C: cortical collecting duct (CCD)-targeting peptide, SEQ ID NO: 52 (MGSHIEPGGC; listed as Homo sapiens)
Water solubility [9]: Good
Targeting location [10]: PCT and CCD
